# Target: T1, VR1 (Homo sapiens, UniProt Q8NER1)
# T1 construct: expressed in transfected cells; host or cells: 293 cells ("293 neurons" [sic])
# Experiment: High throughput calcium imaging assay of VR1 antagonists (Fura2, Flex Station, 96 well); note: test concentration or dose not given here
# Format: cell-based
# Conditions: Table 1 activity class
# T1 sequence (Q8NER1 whole entry, species assumed): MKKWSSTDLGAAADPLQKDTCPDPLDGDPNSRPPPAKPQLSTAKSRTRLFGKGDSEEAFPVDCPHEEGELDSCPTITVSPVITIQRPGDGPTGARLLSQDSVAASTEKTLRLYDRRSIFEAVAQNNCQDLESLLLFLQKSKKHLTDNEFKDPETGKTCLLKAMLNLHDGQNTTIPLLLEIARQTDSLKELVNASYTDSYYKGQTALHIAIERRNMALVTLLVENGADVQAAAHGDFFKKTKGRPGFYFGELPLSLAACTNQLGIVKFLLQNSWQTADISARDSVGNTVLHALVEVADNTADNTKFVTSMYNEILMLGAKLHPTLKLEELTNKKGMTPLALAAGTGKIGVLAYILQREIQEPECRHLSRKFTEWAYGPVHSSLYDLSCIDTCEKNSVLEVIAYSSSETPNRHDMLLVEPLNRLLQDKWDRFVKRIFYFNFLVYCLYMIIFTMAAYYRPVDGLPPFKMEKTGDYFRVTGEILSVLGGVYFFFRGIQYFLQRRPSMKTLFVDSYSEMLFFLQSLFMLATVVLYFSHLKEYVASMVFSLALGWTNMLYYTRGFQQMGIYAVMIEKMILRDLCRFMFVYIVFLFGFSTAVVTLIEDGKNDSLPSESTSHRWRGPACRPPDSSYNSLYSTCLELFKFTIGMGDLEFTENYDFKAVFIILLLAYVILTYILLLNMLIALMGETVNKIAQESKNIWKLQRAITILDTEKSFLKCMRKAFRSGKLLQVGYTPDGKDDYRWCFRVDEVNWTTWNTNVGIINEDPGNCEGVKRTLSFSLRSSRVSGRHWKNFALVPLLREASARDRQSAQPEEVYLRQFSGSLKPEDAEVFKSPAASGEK
row,SMILES,inhibition of calcium ion influx induced by capsaicin stimulation
1,CC(C)(C)/C=C/c1ccc(C(=O)NCCc2ccccc2Cl)cc1 [Compound 11],++++ (compound exhibited 75% or greater inhibition of calcium ion influx induced by capsaicin stimulation)
2,CC(C)(C)/C=C/c1ccc(C(=O)NC2CCC(C(C)(C)C)CC2)cc1 (centres unmarked) [Compound 12],+ (compound exhibited 0-25% inhibition of calcium ion influx induced by capsaicin stimulation)
3,CC(C)(C)/C=C/c1ccc(C(=O)NCc2ccccc2)cc1 [Compound 13],+ (compound exhibited 0-25% inhibition of calcium ion influx induced by capsaicin stimulation)
4,CCCNC(=O)c1ccc(/C=C/C(C)(C)C)cc1 [Compound 14],+ (compound exhibited 0-25% inhibition of calcium ion influx induced by capsaicin stimulation)
5,COc1ccc(NC(=O)c2ccc(/C=C/C(C)(C)C)cc2)cc1 [Compound 15],+ (compound exhibited 0-25% inhibition of calcium ion influx induced by capsaicin stimulation)
6,CC(C)(C)/C=C/c1ccc(C(=O)NCC2CCCO2)cc1 (centres unmarked) [Compound 16],+ (compound exhibited 0-25% inhibition of calcium ion influx induced by capsaicin stimulation)
7,CC(C)(C)/C=C/c1ccc(C(=O)NCc2ccc3c(c2)OCO3)cc1 [Compound 17],+ (compound exhibited 0-25% inhibition of calcium ion influx induced by capsaicin stimulation)
8,CC(C)(C)/C=C/c1ccc(C(=O)NCCc2ccc(S(C)(=O)=O)cc2)cc1 [Compound 20],+ (compound exhibited 0-25% inhibition of calcium ion influx induced by capsaicin stimulation)
9,COc1ccc(CCNC(=O)c2ccc(/C=C/C(C)(C)C)cc2)cc1OC [Compound 24],+ (compound exhibited 0-25% inhibition of calcium ion influx induced by capsaicin stimulation)
10,CC(C)(C)/C=C/c1ccc(C(=O)NC(C)(C)c2ccccc2)cc1 [Compound 26],+ (compound exhibited 0-25% inhibition of calcium ion influx induced by capsaicin stimulation)
11,CC(C)(C)/C=C/c1ccc(C(=O)NCc2cccs2)cc1 [Compound 29],+ (compound exhibited 0-25% inhibition of calcium ion influx induced by capsaicin stimulation)
12,CC(C)(C)/C=C/c1ccc(C(=O)Nc2ccccc2C#N)cc1 [Compound 30],++ (compound exhibited 25-50% inhibition of calcium ion influx induced by capsaicin stimulation)
13,COc1ccccc1NC(=O)c1ccc(/C=C/C(C)(C)C)cc1 [Compound 31],+ (compound exhibited 0-25% inhibition of calcium ion influx induced by capsaicin stimulation)
14,CC(C)(C)/C=C/c1ccc(C(=O)Nc2ccccc2Cl)cc1 [Compound 33],+ (compound exhibited 0-25% inhibition of calcium ion influx induced by capsaicin stimulation)
15,COc1ccc(CNC(=O)c2ccc(/C=C/C(C)(C)C)cc2)cc1OC [Compound 35],+ (compound exhibited 0-25% inhibition of calcium ion influx induced by capsaicin stimulation)
16,COc1ccc(NC(=O)c2ccc(/C=C/C(C)(C)C)cc2)cc1Cl [Compound 37],+ (compound exhibited 0-25% inhibition of calcium ion influx induced by capsaicin stimulation)
17,CC(C)(C)/C=C/c1ccc(C(=O)Nc2cccc(C#N)c2)cc1 [Compound 38],+ (compound exhibited 0-25% inhibition of calcium ion influx induced by capsaicin stimulation)
18,CC(C)(C)/C=C/c1ccc(C(=O)Nc2ccccc2CCO)cc1 [Compound 39],++++ (compound exhibited 75% or greater inhibition of calcium ion influx induced by capsaicin stimulation)
19,CC(C)(C)/C=C/c1ccc(C(=O)Nc2ccc(C(C)(C)C)cc2)cc1 [Compound 40],+++ (compound exhibited 50-75% inhibition of calcium ion influx induced by capsaicin stimulation)
20,CC(C)c1ccc(NC(=O)c2ccc(/C=C/C(C)(C)C)cc2)cc1 [Compound 41],++ (compound exhibited 25-50% inhibition of calcium ion influx induced by capsaicin stimulation)
21,CCCCc1ccc(NC(=O)c2ccc(/C=C/C(C)(C)C)cc2)cc1 [Compound 42],+ (compound exhibited 0-25% inhibition of calcium ion influx induced by capsaicin stimulation)
22,CC(C)(C)/C=C/c1ccc(C(=O)Nc2ccc(C3CCCCC3)cc2)cc1 [Compound 43],+ (compound exhibited 0-25% inhibition of calcium ion influx induced by capsaicin stimulation)
23,COc1cc(NC(=O)c2ccc(/C=C/C(C)(C)C)cc2)cc(C(F)(F)F)c1 [Compound 44],++++ (compound exhibited 75% or greater inhibition of calcium ion influx induced by capsaicin stimulation)
24,Cc1ccc2[nH]c(=O)c3ccc(/C=C/C(C)(C)C)cc3c2c1 [Compound 45],++++ (compound exhibited 75% or greater inhibition of calcium ion influx induced by capsaicin stimulation)

row,SMILES,inhibition of calcium ion influx induced by capsaicin stimulation
1,CC(C)(C)/C=C/c1ccc(C(=O)Nc2ccc3c(c2)OCO3)cc1 [Compound 47],++++ (compound exhibited 75% or greater inhibition of calcium ion influx induced by capsaicin stimulation)
2,Cc1cc(C)nc(NC(=O)c2ccc(/C=C/C(C)(C)C)cc2)c1 [Compound 48],++ (compound exhibited 25-50% inhibition of calcium ion influx induced by capsaicin stimulation)
3,CC(C)(C)/C=C/c1ccc(C(=O)NCc2ccncc2)cc1 [Compound 49],++++ (compound exhibited 75% or greater inhibition of calcium ion influx induced by capsaicin stimulation)
4,CC(C)(C)/C=C/c1ccc(C(=O)Nc2ccncc2)cc1 [Compound 52],++++ (compound exhibited 75% or greater inhibition of calcium ion influx induced by capsaicin stimulation)
5,CC(C)(C)/C=C/c1ccc(C(=O)Nc2cccnc2)cc1 [Compound 53],++++ (compound exhibited 75% or greater inhibition of calcium ion influx induced by capsaicin stimulation)
6,CC(C)(C)/C=C/c1ccc(C(=O)Nc2cc[nH]n2)cc1 [Compound 54],+ (compound exhibited 0-25% inhibition of calcium ion influx induced by capsaicin stimulation)
7,CC(C)(C)/C=C/c1ccc(C(=O)Nc2nccs2)cc1 [Compound 55],+ (compound exhibited 0-25% inhibition of calcium ion influx induced by capsaicin stimulation)
8,CC(C)(C)/C=C/c1ccc(C(=O)NC2CCC(Cc3ccccc3)CC2)cc1 (centres unmarked) [Compound 56],+ (compound exhibited 0-25% inhibition of calcium ion influx induced by capsaicin stimulation)
9,CC(C)(C)/C=C/c1ccc(C(=O)NCCN2CCNCC2)cc1 [Compound 60],+ (compound exhibited 0-25% inhibition of calcium ion influx induced by capsaicin stimulation)
10,CN(C)c1cccc(NC(=O)c2ccc(/C=C/C(C)(C)C)cc2)c1 [Compound 61],++++ (compound exhibited 75% or greater inhibition of calcium ion influx induced by capsaicin stimulation)
11,CCN(CC)c1ccc(NC(=O)c2ccc(/C=C/C(C)(C)C)cc2)cc1 [Compound 62],++++ (compound exhibited 75% or greater inhibition of calcium ion influx induced by capsaicin stimulation)
12,Cc1ccnc(NC(=O)c2ccc(/C=C/C(C)(C)C)cc2)c1 [Compound 64],+ (compound exhibited 0-25% inhibition of calcium ion influx induced by capsaicin stimulation)
13,CN1CCC(NC(=O)c2ccc(/C=C/C(C)(C)C)cc2)CC1 [Compound 65],+ (compound exhibited 0-25% inhibition of calcium ion influx induced by capsaicin stimulation)
14,CC(C)(C)/C=C/c1ccc(C(=O)Nc2ccc3[nH]ccc3c2)cc1 [Compound 66],++ (compound exhibited 25-50% inhibition of calcium ion influx induced by capsaicin stimulation)
15,CC(C)(C)/C=C/c1ccc(C(=O)Nc2ccncn2)cc1 [Compound 67],+ (compound exhibited 0-25% inhibition of calcium ion influx induced by capsaicin stimulation)
16,Cc1cccnc1NC(=O)c1ccc(/C=C/C(C)(C)C)cc1 [Compound 68],+++ (compound exhibited 50-75% inhibition of calcium ion influx induced by capsaicin stimulation)
17,CC(C)(C)/C=C/c1ccc(C(=O)Nc2ccc(Br)cn2)cc1 [Compound 69],+ (compound exhibited 0-25% inhibition of calcium ion influx induced by capsaicin stimulation)
18,CC(C)(C)/C=C/c1ccc(C(=O)Nc2ccc(C(F)(F)F)cn2)cc1 [Compound 70],+ (compound exhibited 0-25% inhibition of calcium ion influx induced by capsaicin stimulation)
19,CC(C)(C)/C=C/c1ccc(C(=O)Nc2ncc(C(F)(F)F)cc2Cl)cc1 [Compound 71],+ (compound exhibited 0-25% inhibition of calcium ion influx induced by capsaicin stimulation)
20,CCc1ccnc(NC(=O)c2ccc(/C=C/C(C)(C)C)cc2)c1 [Compound 72],+ (compound exhibited 0-25% inhibition of calcium ion influx induced by capsaicin stimulation)
21,CC(C)(C)/C=C/c1ccc(C(=O)Nc2ccc(Cl)nc2)cc1 [Compound 74],+++ (compound exhibited 50-75% inhibition of calcium ion influx induced by capsaicin stimulation)
22,COc1ccc(NC(=O)c2ccc(/C=C/C(C)(C)C)cc2)cn1 [Compound 75],++ (compound exhibited 25-50% inhibition of calcium ion influx induced by capsaicin stimulation)
23,CC(C)(C)/C=C/c1ccc(C(=O)Nc2ccnc(Cl)c2)cc1 [Compound 76],++++ (compound exhibited 75% or greater inhibition of calcium ion influx induced by capsaicin stimulation)

# From patent US20050222200A1, “AMIDE DERIVATIVES AS ION CHANNEL LIGANDS AND PHARMACEUTICAL COMPOSITIONS AND METHODS OF USING THE SAME” (Renovis, Inc., priority 2003, published 2005)
